From PubChem BioAssay (NCI)
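A five-concentration, 48-hour dose response in 96-well plates underlies each endpoint, interpolated linearly between surrounding concentrations. Definition used: TGI = concentration required for complete inhibition of growth.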

Tests used:
Assay in all cases: NCI anticancer screen, dose series, 48 h
M14 melanoma = test system: M14 melanoma
HOP-92 NSCLC = test system: HOP-92 NSCLC
A498 renal = test system: A498 renal
RXF 393 renal = test system: RXF 393 renal
MDA-N = test system: MDA-N
SK-MEL-2 melanoma = test system: SK-MEL-2 melanoma
MCF7 breast = test system: MCF7 breast
NCI-H226 lung = test system: NCI-H226 lung
NCI-H460 lung = test system: NCI-H460 lung
HL-60(TB) leukemia = test system: HL-60(TB) leukemia

Structure (SMILES) | TGI (M14 melanoma) | TGI (HOP-92 NSCLC) | TGI (A498 renal) | TGI (RXF 393 renal) | TGI (MDA-N) | TGI (SK-MEL-2 melanoma) | TGI (MCF7 breast) | TGI (NCI-H226 lung) | TGI (NCI-H460 lung) | TGI (HL-60(TB) leukemia)
Cc1c2c(c(O)c3c(O)cccc13)C(=O)C1(O)C(O)=C(C(=O)NCNc3ccc(C(N)=O)cn3)C(=O)C(N(C)C)C1C2 (configuration not stated) | > 100 µM | 6.92 µM | 9.33 µM | 20.1 µM | 98.5 µM | 34.1 µM | > 100 µM | > 100 µM | – | –
COC1CC(COCc2ccccc2)CC(OC)O1 (configuration not stated) | > 100 µM | > 100 µM | > 100 µM | > 100 µM | > 100 µM | – | > 100 µM | > 100 µM | > 100 µM | 1.84 µM
CCOC(=O)C1=NN(c2ccc([N+](=O)[O-])cc2)[C@@]2(C)C[C@]3(c4ccccc4)N(c4ccc([N+](=O)[O-])cc4)N=C(C(=O)OCC)N3c3ccccc3N12 | > 100 µM | – | > 100 µM | > 100 µM | > 100 µM | > 100 µM | > 100 µM | > 100 µM | – | > 100 µM
Cc1cccc2c1c(=O)c1c(O)c3c(cc1n2C)OC(C)(C)C=C3 | > 10 µM | – | > 10 µM | > 10 µM | > 10 µM | > 10 µM | > 10 µM | > 10 µM | > 10 µM | > 10 µM
O=C1CSC(c2ccccc2[N+](=O)[O-])N1c1ccc(-c2ccc(-n3c(-c4ccccc4)nc4ccccc4c3=O)cc2)cc1 (configuration not stated) | > 100 µM | > 100 µM | > 100 µM | – | > 100 µM | > 100 µM | > 100 µM | > 100 µM | > 100 µM | > 100 µM
COC1CN(C)C(=Nc2cccc3ccccc23)S1 (configuration not stated) | > 10 µM | > 10 µM | – | – | > 10 µM | – | > 10 µM | – | – | > 10 µM
Cc1cc(/C=C/c2cc[n+](C)c3ccccc23)c(O)c2ncccc12 | 4.51 µM | 17 µM | 15.5 µM | 9.83 µM | – | 18.8 µM | – | 7.14 µM | 16.7 µM | > 26.9 µM
N#Cc1c(-c2ccc(Cl)cc2)[nH]c(=O)n(C2OC(CO)C(O)C(O)C2O)c1=O (configuration not stated) | > 100 µM | > 100 µM | > 100 µM | > 100 µM | – | > 100 µM | > 100 µM | > 100 µM | > 100 µM | > 100 µM
N#CC(=N)c1ncn(-c2ccc(N)cc2)c1N | > 100 µM | – | > 100 µM | – | > 100 µM | > 100 µM | > 100 µM | > 100 µM | > 100 µM | > 100 µM
Cc1c(N2CCN(C)CC2)nc2ccc(Cl)cc2c1-c1ccccc1 | 34.9 µM | – | 25.3 µM | 42.3 µM | – | 36.5 µM | – | – | 33.4 µM | 34.5 µM
CC(=O)OCC1OC(n2c(-c3ccccc3)c(C(C)=O)c(-c3cccc4ccccc34)c(C#N)c2=S)C(OC(C)=O)C(OC(C)=O)C1OC(C)=O (configuration not stated) | > 100 µM | – | > 100 µM | > 100 µM | > 100 µM | > 100 µM | > 100 µM | > 100 µM | > 100 µM | > 100 µM
CC(=O)O[C@H]1CC[C@@]2(C)C(=CC[C@@H]3[C@@H]2CC[C@]2(C)c4c(C)nn(-c5ccccc5)c4C[C@@H]32)C1 | > 100 µM | 70.8 µM | 52.8 µM | 19.3 µM | > 100 µM | – | > 100 µM | 75.3 µM | 47.9 µM | 77 µM
